The values that follow come from patent US4563527A, “Amidine compounds” (Torii & Co., Ltd., priority 1984, dated 1986).

Assay [1] concerns the target Plasmin (Homo sapiens, UniProt P00747). Description: Anti-plasmin activity (hydrolysis of TAME). The format is biochemical. The following applies: molar concentration inhibiting 50% of TAME hydrolysis; read-out: ID50 plasmin. The method, then:
The anti-trypsin, anti-plasmin, anti-kallikrein and anti-thrombin activities were determined according to the method of Muramatsu et al. [M. Muramatus, T. Onishi, S. Makino, Y. Hayashi and S. Fujii, J. of Biochem., 58, 214 (1965)]. […] The compound No. corresponds to the compound number shown in Examples.

In assay [2] the test system is Kallikrein. Description: Anti-kallikrein activity (hydrolysis of TAME). The format is biochemical. The following applies: molar concentration inhibiting 50% of TAME hydrolysis; read-out: ID50 kallikrein. The method, then: (§1) The anti-trypsin, anti-plasmin, anti-kallikrein and anti-thrombin activities were determined according to the method of Muramatsu et al. [M. Muramatus, T. Onishi, S. Makino, Y. Hayashi and S. Fujii, J. of Biochem., 58, 214 (1965)]. The data summarized in Table 1 are expressed in terms of molar concentration (ID50) of the test compound which inhibits 50% of the activity of each enzyme to hydrolyze TAME (tosylalginine methyl ester). The compound No. corresponds to the compound number shown in Examples.

Assay [3] deals with T1, C1r (Homo sapiens, UniProt P00736).
T1 sequence (P00736 464-705 limits assumed): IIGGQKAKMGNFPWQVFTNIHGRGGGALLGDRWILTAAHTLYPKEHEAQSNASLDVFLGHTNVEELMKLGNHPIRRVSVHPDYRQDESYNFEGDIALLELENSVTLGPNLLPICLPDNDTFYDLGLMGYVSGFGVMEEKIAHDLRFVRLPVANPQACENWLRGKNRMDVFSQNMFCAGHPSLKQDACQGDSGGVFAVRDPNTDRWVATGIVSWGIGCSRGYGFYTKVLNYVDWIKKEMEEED
T1 sequence (P00736 18-463 partner limits assumed): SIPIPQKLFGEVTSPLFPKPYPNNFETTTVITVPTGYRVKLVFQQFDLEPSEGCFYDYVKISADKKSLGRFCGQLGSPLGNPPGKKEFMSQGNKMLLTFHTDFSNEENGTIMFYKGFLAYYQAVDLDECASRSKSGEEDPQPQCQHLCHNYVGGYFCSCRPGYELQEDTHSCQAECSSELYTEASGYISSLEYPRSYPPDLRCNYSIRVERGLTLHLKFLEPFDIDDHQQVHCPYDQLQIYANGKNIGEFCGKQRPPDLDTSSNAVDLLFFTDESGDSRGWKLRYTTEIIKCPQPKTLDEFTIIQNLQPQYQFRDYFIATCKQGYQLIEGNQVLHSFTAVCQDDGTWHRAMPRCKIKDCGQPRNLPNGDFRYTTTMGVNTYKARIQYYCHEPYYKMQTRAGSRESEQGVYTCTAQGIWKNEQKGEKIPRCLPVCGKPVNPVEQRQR
In words: biochemical. The following applies: read-out: ID50 C1r (Anti-C1 activity).

Assay [4] concerns the target T2, Trypsin (Bos taurus, UniProt P00760).
T2 sequence (P00760 24-246): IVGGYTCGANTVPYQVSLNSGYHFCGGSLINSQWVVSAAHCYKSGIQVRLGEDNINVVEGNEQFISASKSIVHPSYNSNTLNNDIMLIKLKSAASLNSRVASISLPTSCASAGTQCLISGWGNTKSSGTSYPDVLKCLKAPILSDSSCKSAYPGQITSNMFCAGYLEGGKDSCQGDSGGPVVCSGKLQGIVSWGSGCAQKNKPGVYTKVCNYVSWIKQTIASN
In words: Anti-trypsin activity (hydrolysis of TAME). Type of assay: biochemical. The following applies: molar concentration inhibiting 50% of TAME hydrolysis; read-out: ID50 trypsin. The method, then: as §1

The target of assay [5] is T3, C1s (Homo sapiens, UniProt P09871).
T3 sequence (P09871 438-688 limits assumed): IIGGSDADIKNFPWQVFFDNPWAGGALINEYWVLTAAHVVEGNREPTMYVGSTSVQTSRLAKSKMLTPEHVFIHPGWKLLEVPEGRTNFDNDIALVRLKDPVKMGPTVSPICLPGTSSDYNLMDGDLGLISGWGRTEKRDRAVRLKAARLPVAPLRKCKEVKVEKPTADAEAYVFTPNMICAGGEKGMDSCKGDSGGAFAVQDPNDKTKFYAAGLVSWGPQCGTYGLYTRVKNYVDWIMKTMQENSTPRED
T3 sequence (P09871 16-437 partner limits assumed): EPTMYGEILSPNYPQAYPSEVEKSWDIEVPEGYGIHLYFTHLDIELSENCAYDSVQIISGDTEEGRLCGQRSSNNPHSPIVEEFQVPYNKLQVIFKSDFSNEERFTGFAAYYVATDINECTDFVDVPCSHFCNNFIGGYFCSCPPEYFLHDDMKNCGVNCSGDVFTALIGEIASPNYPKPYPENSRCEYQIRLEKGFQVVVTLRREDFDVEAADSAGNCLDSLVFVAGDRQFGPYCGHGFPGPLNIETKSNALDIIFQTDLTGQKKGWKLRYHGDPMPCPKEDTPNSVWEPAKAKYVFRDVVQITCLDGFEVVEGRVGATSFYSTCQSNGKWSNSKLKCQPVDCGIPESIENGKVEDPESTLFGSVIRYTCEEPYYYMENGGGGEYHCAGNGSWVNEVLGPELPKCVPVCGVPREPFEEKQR
Description: Anti-C1s activity (hydrolysis of ATEE). The format is biochemical. Particulars: molar concentration inhibiting 50% of ATEE hydrolysis; read-out: ID50 C1s (Anti-C1 activity). The method, then: The anti-C1 esterase (C1r, C1s) activity was determined according to the method of Okamura et al. [K. Okamura, M. Muramatsu and B. Fujii, Biochem. Biophys. Acta, 295, 252-257 (1973)]. The inhibition of complement mediated hemolysis was determined according to the method of Baker et al. [B. R. Baker and E. H. Erickson, J. Med. Chem. 12, 408-414 (1969)]. The figures in Table 2 have the following meanings:
C1s: Molar concentration of the test compound which inhibits 50% of the ability of C1s to hydrolyse ATEE (acetyltyrosin ethyl ester) (ID50).

The subject of assay [6] is complement. In words: Inhibition of complement mediated hemolysis. The format is cell-based. The method, then:
The complement mediated hemolysis is widely used as a means to determine the titration of complement. The principle of this method is based on the fact that hemolysis is caused by the activation of complement, when the latter is added to a complex (immune complex) of erythrocytes and the antibody thereof. The degree of hemolysis varies in proportion to the amount of complement added. Therefore, when a known amount of complement admixed with a C1 esterase inhibitor is used, the hemolysis must be suppressed in proportion to the inhibitory activity.
The anti-C1 esterase (C1r, C1s) activity was determined according to the method of Okamura et al. [K. Okamura, M. Muramatsu and B. Fujii, Biochem. Biophys. […] The figures in Table 2 have the following meanings: […]

Assay [7] has as its target Thrombin (Homo sapiens, UniProt P00734). In words: biochemical. The following applies: read-out: ID50 thrombin.
Where [8] appears, read: molar concentration inhibiting 50% of AAME hydrolysis.
Setting [9] is: molar concentration inhibiting 50% of TAME hydrolysis.

Molecules are shown by their SMILES. Like-named read-outs stand apart in the source and are kept apart here.

Chain of Plasmin (P00747 581-810 limits assumed, species assumed): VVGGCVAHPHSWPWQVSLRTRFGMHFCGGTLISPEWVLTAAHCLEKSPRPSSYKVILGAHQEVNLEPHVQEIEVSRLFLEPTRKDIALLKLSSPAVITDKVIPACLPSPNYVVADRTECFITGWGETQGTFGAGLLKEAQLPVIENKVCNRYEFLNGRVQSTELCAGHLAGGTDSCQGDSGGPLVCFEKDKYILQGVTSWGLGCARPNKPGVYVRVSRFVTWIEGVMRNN
Chain of Plasmin (P00747 97-580 partner limits assumed, species assumed): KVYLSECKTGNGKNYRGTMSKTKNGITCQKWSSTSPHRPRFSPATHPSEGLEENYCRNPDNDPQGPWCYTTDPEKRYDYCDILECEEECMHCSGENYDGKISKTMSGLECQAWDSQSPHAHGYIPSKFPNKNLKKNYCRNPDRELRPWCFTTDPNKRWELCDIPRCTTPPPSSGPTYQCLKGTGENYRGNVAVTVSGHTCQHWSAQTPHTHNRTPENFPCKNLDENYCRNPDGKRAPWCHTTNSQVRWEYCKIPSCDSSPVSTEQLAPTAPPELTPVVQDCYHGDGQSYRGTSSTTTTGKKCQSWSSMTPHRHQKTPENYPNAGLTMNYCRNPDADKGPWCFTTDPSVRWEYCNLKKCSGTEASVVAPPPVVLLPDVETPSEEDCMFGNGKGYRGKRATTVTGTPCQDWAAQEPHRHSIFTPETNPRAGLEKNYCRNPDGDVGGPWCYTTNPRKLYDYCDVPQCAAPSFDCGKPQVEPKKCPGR

For the compound `N=C(N)c1ccc2cc(OC(=O)c3ccc(CNC4=NCCN4)o3)ccc2c1` [compound 11], the IC50 in assay [1] is 2000 nM; in assay [2], 400 nM; in assay [3] (setting [8]), 500 nM; in assay [4], 3000 nM; in assay [5], 500 nM; in assay [7] (setting [9]), 400 nM. Also, the figures for the “Inhibition of complement mediated hemolysis (%)” value (“Inhibition … (%)” below) in assay [6] (1 × 10^-5), in assay [6] (1 × 10^-6) and in assay [6] (1 × 10^-7) were 100%, 100% and 43%, respectively.
As to `CN(C)CC(=O)NCc1ccc(C(=O)Oc2ccc3cc(C(=N)N)ccc3c2)o1` [compound 14], the IC50 in assay [1] stood at 2000 nM; in assay [2], 500 nM; in assay [3] (setting [8]), 700 nM; in assay [4], 1000 nM; in assay [5], 300 nM; in assay [7] (setting [9]) it was 700 nM. Also, the “Inhibition … (%)” value in assay [6] (1 × 10^-5) stood at 100%; in assay [6] (1 × 10^-6), 100%; in assay [6] (1 × 10^-7), 28%.
Consider `N=C(N)Nc1ccc(C(=O)NCc2ccc(C(=O)Oc3ccc4cc(C(=N)N)ccc4c3)o2)cc1` [compound 15], for which the IC50 in assay [1] stood at 300 nM; in assay [2], 400 nM; in assay [3], 300 nM; in assay [4] it was 200 nM; in assay [5], 400 nM; in assay [7] (setting [9]) it was 600 nM. Moreover, the “Inhibition … (%)” value is given as 100% in assay [6] (1 × 10^-5), 100% in assay [6] (1 × 10^-6) and 99% in assay [6] (1 × 10^-7).
For the compound `N=C(N)c1ccc2cc(OC(=O)c3ccc(CNC(=O)c4cccnc4)o3)ccc2c1` [compound 16], the IC50 in assay [1] was determined as 1000 nM; in assay [2], 400 nM; in assay [3] (setting [8]) it was 400 nM; in assay [4], 1000 nM; in assay [5], 300 nM; in assay [7] (setting [9]) it was 400 nM. Further, the “Inhibition … (%)” value in assay [6] (1 × 10^-5) was 100%; in assay [6] (1 × 10^-6) it was 100%; in assay [6] (1 × 10^-7), 97%.
As to `N=C(N)c1ccc2cc(OC(=O)c3ccc(CNC(=O)c4cnc5ccccc5c4)o3)ccc2c1` [compound 17], the IC50 in assay [1] turned out to be 2000 nM; in assay [2], 1000 nM; in assay [3] (setting [8]) it was 500 nM; in assay [4], 800 nM; in assay [5], 2000 nM; in assay [7] (setting [9]), 700 nM. The “Inhibition … (%)” value in assay [6] (1 × 10^-5) is 100%; in assay [6] (1 × 10^-6), 100%; in assay [6] (1 × 10^-7), 93%.
For `N=C(N)c1ccc2cc(OC(=O)c3ccc(CNC(=O)CCOCc4ccccc4)o3)ccc2c1` [compound 18], the IC50 in assay [1] came to 500 nM; in assay [2] it was 500 nM; in assay [3] (setting [8]), 300 nM; in assay [4] it was 900 nM; in assay [5], 3000 nM; in assay [7] (setting [9]) it was 500 nM. The “Inhibition … (%)” value was 100% in assay [6] (1 × 10^-5), 100% in assay [6] (1 × 10^-6) and 97% in assay [6] (1 × 10^-7).
Take `N=C(N)c1ccc2cc(OC(=O)c3ccc(CNC(=O)OCc4ccccc4)o3)ccc2c1` [compound 19]: the IC50 is 300 nM in assay [1]; 700 nM in assay [2]; 200 nM in assay [3] (setting [8]); 200 nM in assay [4]; 300 nM in assay [5]; 200 nM in assay [7] (setting [9]). Besides, the “Inhibition … (%)” value in assay [6] (1 × 10^-5) was 97%; in assay [6] (1 × 10^-6), 97%; in assay [6] (1 × 10^-7), 93%.
Turning to `CN(C)Cc1ccc(C(=O)Oc2ccc3cc(C(=N)N)ccc3c2)o1` [compound 23], the IC50 in assay [1] was determined as 2000 nM; in assay [2] it was 3000 nM; in assay [3] (setting [8]) it was 3000 nM; in assay [4] it was 500 nM; in assay [5], 2000 nM; in assay [7] (setting [9]) it was 4000 nM. Besides, the “Inhibition … (%)” value in assay [6] (1 × 10^-5) worked out at 100%; in assay [6] (1 × 10^-6) it was 95%; in assay [6] (1 × 10^-7) it was 76%.
For the compound `N=C(N)c1ccc2cc(OC(=O)c3ccc(CN4CCOCC4)o3)ccc2c1` [compound 25], the IC50 in assay [1] was 600 nM; in assay [2], 2000 nM; in assay [3] (setting [8]), 1000 nM; in assay [4] it was 700 nM; in assay [5], 2000 nM; in assay [7] it was 3000 nM. The “Inhibition … (%)” value stood at 100% in assay [6] (1 × 10^-5), 98% in assay [6] (1 × 10^-6) and 82% in assay [6] (1 × 10^-7).
Consider `N=C(N)c1ccc2cc(OC(=O)c3ccc(CN4CCN(Cc5ccccc5)CC4)o3)ccc2c1` [compound 26], for which the IC50 was 600 nM in assay [1]; 3000 nM in assay [2]; 500 nM in assay [3] (setting [8]); 300 nM in assay [4]; 4000 nM in assay [5]; 2000 nM in assay [7] (setting [9]). For the same compound, the “Inhibition … (%)” value amounted to 100% in assay [6] (1 × 10^-5), 98% in assay [6] (1 × 10^-6) and 93% in assay [6] (1 × 10^-7).
